Laboratory results reported in patent US4036957A, “Phenoxy compounds in combinations to suppress gastric bleeding in aspirin therapy” (priority 1975, dated 1977).
Where two headings read alike, the source gives them in different places.

Tests used:
[1] = system: aspirin-induced gastric bleeding; experiment: Prevention of aspirin-induced gastric bleeding in pyloric-ligated rats, i.p. test compound (Examples 1-22); format: in vivo, Female Sprague-Dawley rats; conditions: rat, aspirin 375 mg/kg p.o.; for change in vivo at 100 mg/kg: ip
Experimental: The prevention of aspirin-induced bleeding in rats was determined by the following procedure. Female Sprague-Dawley rats weighing 150-180 g. were fasted for 24 hours on wire and divided into groups of six animals each. The rats were anesthetized and a ligature placed at the pyloric-duodenal junction. Groups serving as controls received normal saline (4.0 ml/kg, i.p.). […] Some of the compounds were tested at 50 mg/kg, i.p. The rats were sacrificed 60 min. after aspirin administration by cervical dislocation. The volume of the gastric contents was determined and compared against that produced with the same amount of aspirin for change in volume. […] (Gradation between 0 to 40 is on an even scale).

aspirin-induced bleeding = conditions: rat; for Gastric Bleeding Index / Percent Decrease In Mucosal Hemorrhage vs. Control / Total Hemoglobin Loss / Volume Gastric Secretion: aspirin 375 p.o.; for Total Hemoglobin Loss / Volume Gastric Secretion: ± S.E.
Experimental: The effect of glyceryl guaiacolate (Compound 8) on aspirin-induced bleeding in rats was studied using the following procedure. Female Sprague-Dawley rats, weighing 140-160 g. and fasted for 24 hrs. on wire were divided into groups of 10 animals each. All animals were anesthetized with Metofane® and a ligature placed at the pyloric-duodenal junction. Groups serving as controls received normal saline (4.0 ml/kg, i.p.). Some groups received normal saline and in addition were given aspirin (375 mg/kg, p.o.) in artificial gastric juice; the remaining groups received aspirin in the same amount and also glyceryl guaiacolate 30 min. prior to the aspirin. The aspirin was administered in artificial gastric juice (USP, […]) in a total volume of 2 ml. to each rat. Following a recovery period of 1 hr. the animals received saline, aspirin and glyceryl guaiacolate in the amounts and by the routes indicated. In most of the experiments, 90 min. following aspirin the rats were sacrificed by cervical dislocation. The stomachs were removed and gastric contents collected for further analysis. […] Hemoglobin loss produced by the aspirin was determined by the colorimetric method of Bing and Baker (J. Biol. Chem. 92: 589, 1931). The condition of the gastric mucosa was also assessed by determining the incidence and severity of damage using the scoring system described hereinabove to obtain the "Gastric Bleeding Index".
Following the procedure of Example 26, methocarbamol (Compound 3 ) was tested further in rats via intraperitoneal and intraduodenal administration.

[2] = system: aspirin-induced gastric bleeding; experiment: Aspirin-induced gastric bleeding in Cr51 labeled Heidenhain pouch dogs, oral; format: in vivo; conditions: dog
Experimental: Methocarbamol (Compound 3) and Metaxalone (Compound 15) were evaluated for their effectiveness upon oral administration against aspirin-induced gastric bleeding in dogs. Three female chronic Heindehain pouch dogs were used. Red blood cells from each dog were labeled with Cr^51. The dogs were fasted 24 hours prior to any study and three days elapsed between studies. On experimental days each fundic pouch was rinsed with tepid tap water and then filled with 10 ml. of normal saline. After 30 minutes the saline was replaced with 10 ml. of artificial gastric juice (USP, pH 1.3). The dogs were given Compound 3 (200 mg/kg) or Compound 15 (50 and 100 mg/kg) or placebo (starch) orally in gelatin capsules. The 10 ml. of gastric juice was removed from the pouch after 60 minutes and replaced with another 10 ml. of juice containing 100 mg. of aspirin (80 mesh). This was likewise removed after 60 minutes. All samples collected from the pouches were counted for radio-activity using a deep-well counter. From the amount of radio-activity present in the gastric samples, the loss of blood into the pouch was determined. The results are shown in Table 3 and show the effectiveness of orally administering Compounds 3 and 15 in preventing aspirin-induced gastric bleeding.

[3] = 100 mg/kg intraduodenal, P <0.05
[4] = 200 mg/kg intraduodenal, P <0.05
[5] = 400 mg/kg intraduodenal, P <0.05

Q: For `COc1ccccc1OCC(O)COC(N)=O` (stereo not drawn) [Compound 3, 3-(o-methoxyphenoxy)-1,2-propanediol-1-carbamate], which change in vivo at 100 mg/kg ([1]; 1 h, 100 mg/kg i.p., read-out: Percent Decrease in Mucosal Bleeding vs Control) is on record?
A: -43%

Q: And the change in vivo at 100 mg/kg ([1]; 100 mg/kg i.p. (column head states no dose), read-out: Vol. % Decrease in Gastric Secretion)?
A: -18.3%

Q: And the “Gastric Bleeding Index” value ([1]; score 0 to 40, 100 mg/kg i.p. (column head states no dose))?
A: 21.7

Q: And the “Gastric Bleeding Index” value (aspirin-induced bleeding; 50 mg/kg i.p.)?
A: 34 ± 2

Q: What about the “Percent Decrease In Mucosal Hemorrhage vs. Control” value (aspirin-induced bleeding; 50 mg/kg i.p.) of the same compound?
A: none

Q: What about the “Total Hemoglobin Loss” value (aspirin-induced bleeding; 50 mg/kg i.p.) of the same compound?
A: 22.4 ± 2.4 mg

Q: And the “Volume Gastric Secretion” value (aspirin-induced bleeding; 50 mg/kg i.p.)?
A: 6.2 ± 0.5 mL

Q: And the “Percent Decrease In Mucosal Hemorrhage vs. Control” value (aspirin-induced bleeding; 100 mg/kg i.p.)?
A: 62%

Q: And the “Volume Gastric Secretion” value (aspirin-induced bleeding; 100 mg/kg i.p.)?
A: 5.5 ± 0.3 mL

Q: And the “Total Hemoglobin Loss” value (aspirin-induced bleeding; 100 mg/kg i.p., P <0.05)?
A: 11.6 ± 3.6 mg

Q: And the “Gastric Bleeding Index” value (aspirin-induced bleeding; 100 mg/kg i.p., P <0.05)?
A: 13 ± 6

Q: What about the “Gastric Bleeding Index” value (aspirin-induced bleeding; 100 mg/kg intraduodenal) of the same compound?
A: 24 ± 3

Q: What about the “Percent Decrease In Mucosal Hemorrhage vs. Control” value (aspirin-induced bleeding; 100 mg/kg intraduodenal) of the same compound?
A: 27%

Q: And the “Total Hemoglobin Loss” value (aspirin-induced bleeding; [3])?
A: 27.8 ± 0.1 mg

Q: What about the “Volume Gastric Secretion” value (aspirin-induced bleeding; [3]) of the same compound?
A: 5.0 ± 0.1 mL

Q: What about the “Percent Decrease In Mucosal Hemorrhage vs. Control” value (aspirin-induced bleeding; 200 mg/kg i.p.) of the same compound?
A: 97%

Q: What about the “Total Hemoglobin Loss” value (aspirin-induced bleeding; 200 mg/kg i.p., P <0.05) of the same compound?
A: 1.5 ± 0.5 mg

Q: And the “Volume Gastric Secretion” value (aspirin-induced bleeding; 200 mg/kg i.p., P <0.05)?
A: 3.7 ± 0.4 mL

Q: And the “Gastric Bleeding Index” value (aspirin-induced bleeding; 200 mg/kg i.p., P <0.05)?
A: 1 ± 1

Q: What about the “Percent Decrease In Mucosal Hemorrhage vs. Control” value (aspirin-induced bleeding; 200 mg/kg intraduodenal) of the same compound?
A: 67%

Q: What about the “Total Hemoglobin Loss” value (aspirin-induced bleeding; [4]) of the same compound?
A: 7.0 ± 2.8 mg

Q: And the “Volume Gastric Secretion” value (aspirin-induced bleeding; [4])?
A: 3.5 ± 0.6 mL

Q: And the “Gastric Bleeding Index” value (aspirin-induced bleeding; [4])?
A: 11 ± 6

Q: What about the “Percent Decrease In Mucosal Hemorrhage vs. Control” value (aspirin-induced bleeding; 400 mg/kg intraduodenal) of the same compound?
A: 99%

Q: What about the “Total Hemoglobin Loss” value (aspirin-induced bleeding; [5]) of the same compound?
A: 5.1 ± 3.6 mg

Q: And the “Volume Gastric Secretion” value (aspirin-induced bleeding; [5])?
A: 1.3 ± 0.1 mL

Q: What about the “Gastric Bleeding Index” value (aspirin-induced bleeding; [5]) of the same compound?
A: 0.4 ± 1

Q: And the “reducing bleeding (in words)” value (aspirin-induced bleeding; one part by weight methocarbamol to 3.75 parts aspirin)?
A: significantly effective

Q: What about the “% Protection” value ([2]; 200 mg/kg p.o.) of the same compound?
A: 79%

Q: What about the “Mucosal Blood Loss, HCl + Aspirin” value ([2]; 200 mg/kg p.o., ± S.E.) of the same compound?
A: 6.6 ± 3.1 µL

Q: What about the “Mucosal Blood Loss, HCl” value ([2]; 200 mg/kg p.o., ± S.E., without aspirin) of the same compound?
A: 3.5 ± 0.7 µL

Q: What about the “% Change from Control (mucosal blood loss)” value ([2]; 200 mg/kg p.o., P > .05) of the same compound?
A: +88%

Q: What about the “preventing aspirin-induced gastric bleeding (in words)” value ([2]; oral) of the same compound?
A: effectiveness
